Measured values taken from patent publication US20260207600A1, “METHODS OF TREATMENT WITH MYOSIN MODULATOR” (MYOKARDIA, INC., priority 2019, published 2026).
In brackets after ≈: the same amount, converted by molar mass. Like-named read-outs stand apart in the source and are kept apart here.

How the values were obtained:
[1] = system: conscious Sprague-Dawley rats; assay: Positive inotropic challenge (dobutamine, levosimendan) after supra-therapeutic mavacamten, echocardiography; format: in vivo, rat; settings: supra-therapeutic dose, healthy rats
Procedure: Methods: The responsiveness of mavacamten-induced cardio-depression to positive inotropic challenges was assessed in a set of conscious Sprague-Dawley rats. In these animals, functional reserve was assessed via either dobutamine (+DOB, 10 μg/kg/min IV for 10 min, n=7) or levosimendan (+LEVO, 0.3 μmol/kg IV over […]; n=6) challenges given 3 hrs following a single-dose administration of MAVA (at 4 mg/kg, PO). Cardiac function/geometry were recorded and compared at three separate time-points/days: prior to dosing (i.e., at baseline) and at 3 hrs post-dosing both before as well as during the inotropic challenge; in order to account for the levosimendan-induced changes in loading conditions, an additional echocardiographic examination was performed following acute preload-restoration in LEVO-treated rats (+LEVO/F, 0.9% NaCl at 30 mL/kg/hr IV).
In these experiments, left-ventricular fractional shortening (FS), an index of systolic performance, as well as LV dimensions/volumes and heart rates were measured using a high-frequency transducer and parasternal long-axis transthoracic views (Vevo2100, VisualSonic). FS was defined as the end-diastole normalized change in internal dimensions/diameter of the left ventricle between end-systole (LVESd) and end-diastole (LVEDd) (i.e., FS=100·[LVEDd−LVESd]/LVEDd). LV volumes were derived assuming a Teichholz model (LVV=7·[2.4+LVid]−1·LVid3).

[2] = Solubility estimates at ambient temperature; format: physicochemical; settings: thermodynamic from solid, Form A (Lot 2-4), read-out: Solubility (estimate)
Procedure: Solubilities were calculated based on the total solvent used to give a solution; actual solubilities may be greater because of the volume of solvent portions utilized or a slow rate of dissolution. […] If dissolution occurred at the first aliquot, the value was reported as “>”.
Solubility estimates at ambient temperature were performed in 25 solvents and solvent systems using Form A (Lot 2-4) (Table 13.3).

[3] = API thermodynamic solubility; format: physicochemical; settings: thermodynamic from solid
CYP2J2 = molecular target: T1, CYP2J2 (Homo sapiens, UniProt P51589); assay: In vitro contribution of CYP enzymes to mavacamten metabolism; format: in vitro ADME
T1 sequence (P51589 1-502): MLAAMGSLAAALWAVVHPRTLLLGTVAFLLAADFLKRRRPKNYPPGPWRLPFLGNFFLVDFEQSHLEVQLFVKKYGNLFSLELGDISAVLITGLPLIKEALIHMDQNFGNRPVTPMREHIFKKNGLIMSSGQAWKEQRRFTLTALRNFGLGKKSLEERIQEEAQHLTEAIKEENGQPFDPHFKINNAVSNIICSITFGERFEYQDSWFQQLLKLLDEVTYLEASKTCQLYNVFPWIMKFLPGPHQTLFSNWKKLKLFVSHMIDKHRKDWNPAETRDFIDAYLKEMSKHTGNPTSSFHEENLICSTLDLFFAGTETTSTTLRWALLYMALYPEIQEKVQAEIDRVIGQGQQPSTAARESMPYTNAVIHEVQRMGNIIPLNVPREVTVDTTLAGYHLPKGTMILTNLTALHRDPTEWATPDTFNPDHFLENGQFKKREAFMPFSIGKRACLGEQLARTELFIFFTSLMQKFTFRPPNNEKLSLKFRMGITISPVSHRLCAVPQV

## CC(C)n1c(=O)cc(N[C@@H](C)c2ccccc2)[nH]c1=O [mavacamten, (S)-3-Isopropyl-6-((1-phenylethyl)amino)pyrimidine-2, 4(1H,3H)-dione]
[1]
  reduction in ejection fraction: ~50%
[2]; aqueous with cosolvent or surfactant or cyclodextrin, DMSO:water (50:50)
  solubility: < 1000 µg/mL
[2]; aqueous with cosolvent or surfactant or cyclodextrin, MeOH:water (50:50)
  solubility: < 1000 µg/mL
[2]; organic solvent or mixture, Anisole
  solubility: < 1000 µg/mL
[2]; organic solvent or mixture, DMF:CHCl3 (90:10)
  solubility: ~27000 µg/mL (≈ 98.8 mM)
[2]; organic solvent or mixture, DMF:EtOAc (80:20)
  solubility: ~27000 µg/mL (≈ 98.8 mM)
[2]; organic solvent or mixture, DMF:EtOH (75:25)
  solubility: ~28000 µg/mL (≈ 102 mM)
[2]; organic solvent or mixture, DMF:anisole (90:10)
  solubility: ~28000 µg/mL (≈ 102 mM)
[2]; organic solvent or mixture, DMF:iPrOH (80:20)
  solubility: ~43000 µg/mL (≈ 157 mM)
[2]; organic solvent or mixture, DMF:toluene (90:10)
  solubility: ~42000 µg/mL (≈ 154 mM)
[2]; organic solvent or mixture, DMSO:p-dioxane (80:20)
  solubility: > 42000 µg/mL
[2]; organic solvent or mixture, DMSO:water (90:10)
  solubility: ~5000 µg/mL (≈ 18.3 mM)
[2]; organic solvent or mixture, HFIPA
  solubility: > 60000 µg/mL
[2]; organic solvent or mixture, HFIPA:water (90:10)
  solubility: ~28000 µg/mL (≈ 102 mM)
[2]; organic solvent or mixture, MIBK
  solubility: < 1000 µg/mL
[2]; organic solvent or mixture, MeOH
  solubility: ~2000 µg/mL (≈ 7.32 mM)
[2]; organic solvent or mixture, MeOH:water (90:10)
  solubility: < 1000 µg/mL
[2]; organic solvent or mixture, NMP:EtOAc (80:20)
  solubility: ~45000 µg/mL (≈ 165 mM)
[2]; organic solvent or mixture, NMP:MeOH (75:25)
  solubility: ~38000 µg/mL (≈ 139 mM)
[2]; organic solvent or mixture, NMP:toluene (80:20)
  solubility: ~27000 µg/mL (≈ 98.8 mM)
[2]; organic solvent or mixture, NMP:water (90:10)
  solubility: ~23000 µg/mL (≈ 84.1 mM)
[2]; organic solvent or mixture, THF
  solubility: ~2000 µg/mL (≈ 7.32 mM)
[2]; organic solvent or mixture, THF:water (90:10)
  solubility: ~13000 µg/mL (≈ 47.6 mM)
[2]; organic solvent or mixture, iPrOH
  solubility: < 1000 µg/mL
[2]; organic solvent or mixture, nitromethane
  solubility: < 1000 µg/mL
[2]; organic solvent or mixture, toluene
  solubility: < 1000 µg/mL
[3]; DCM, organic solvent or mixture
  solubility thermodynamic: 1100 µg/mL (≈ 4.02 mM)
[3]; DMF, organic solvent or mixture
  solubility thermodynamic: ~130000 µg/mL (≈ 476 mM)
[3]; DMSO, organic solvent or mixture
  solubility thermodynamic: > 150000 µg/mL
[3]; EtOAc, organic solvent or mixture
  solubility thermodynamic: 1000 µg/mL (≈ 3.66 mM)
[3]; EtOH, organic solvent or mixture
  solubility thermodynamic: 7400 µg/mL (≈ 27.1 mM)
[3]; NMP, organic solvent or mixture
  solubility thermodynamic: > 150000 µg/mL
[3]; acetone, organic solvent or mixture
  solubility thermodynamic: 3300 µg/mL (≈ 12.1 mM)
[3]; acetonitrile, organic solvent or mixture
  solubility thermodynamic: 900 µg/mL (≈ 3.29 mM)
[3]; diethyl ether, organic solvent or mixture
  solubility thermodynamic: 50 µg/mL (≈ 0.183 mM)
[3]; hexanes, organic solvent or mixture
  solubility thermodynamic: < 10 µg/mL
[3]; n-heptanes, organic solvent or mixture
  solubility thermodynamic: < 10 µg/mL
[3]; n-hexane, organic solvent or mixture
  solubility thermodynamic: < 10 µg/mL
[3]; p-dioxane, organic solvent or mixture
  solubility thermodynamic: 1200 µg/mL (≈ 4.39 mM)
[3]; water
  solubility thermodynamic: 10 µg/mL (≈ 0.0366 mM)
CYP2J2
  percent contribution to the metabolism of mavacamten: negligible
